From ChEMBL document CHEMBL4354795, “Amino Acid Scanning at P5' within the Bowman-Birk Inhibitory Loop Reveals Specificity Trends for Diverse Serine Proteases” (J Med Chem, 2019)
Bridge positions count the residues as written; N and C are the ends. Peptide text beside a SMILES is read from it.

Key:
Kallikrein-5 [1] = target: T1, Kallikrein-5 (Homo sapiens, UniProt Q9Y337); assay: Inhibition of recombinant human KLK5 expressed in expressed in Pichia pastoris X-33 cells using Boc-VPR-MCA as susbtrate measured every 60 secs for 10 mins by fluorescence based assay
T1 sequence (Q9Y337 whole entry): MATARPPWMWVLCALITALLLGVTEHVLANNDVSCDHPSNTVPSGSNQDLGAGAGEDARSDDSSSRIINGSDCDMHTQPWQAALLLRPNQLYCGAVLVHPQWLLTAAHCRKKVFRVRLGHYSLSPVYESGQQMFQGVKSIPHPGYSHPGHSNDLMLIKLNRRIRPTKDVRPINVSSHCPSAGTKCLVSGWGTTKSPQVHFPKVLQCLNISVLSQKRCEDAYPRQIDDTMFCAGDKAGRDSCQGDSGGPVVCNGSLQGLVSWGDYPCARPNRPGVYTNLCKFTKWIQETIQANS

[2] = Inhibition of human cationic trypsin using Boc-VPR-MCA as susbtrate measured every 60 secs for 10 mins by fluorescence based assay
Kallikrein-7 [3] = target: T2, Kallikrein-7 (Homo sapiens, UniProt P49862); assay: Inhibition of recombinant human KLK7 expressed in expressed in Pichia pastoris X-33 cells at 5 uM using KHLY-pNA as susbtrate measured every 15 secs for 10 mins by colorimetric analysis relative to control
Target sequence in this assay (P49862 30-253 limits assumed): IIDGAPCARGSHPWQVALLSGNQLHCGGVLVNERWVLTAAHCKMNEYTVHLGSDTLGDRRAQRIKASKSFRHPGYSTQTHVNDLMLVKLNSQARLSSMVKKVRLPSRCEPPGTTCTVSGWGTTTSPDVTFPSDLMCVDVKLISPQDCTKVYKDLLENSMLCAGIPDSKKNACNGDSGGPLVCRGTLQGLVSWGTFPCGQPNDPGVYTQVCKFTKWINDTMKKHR

Kallikrein-7 [4] = target: T2, Kallikrein-7; assay: Inhibition of recombinant human KLK7 expressed in expressed in Pichia pastoris X-33 cells using KHLY-pNA as susbtrate measured every 15 secs for 10 mins by colorimetric analysis
Target sequence in this assay (P49862 whole entry): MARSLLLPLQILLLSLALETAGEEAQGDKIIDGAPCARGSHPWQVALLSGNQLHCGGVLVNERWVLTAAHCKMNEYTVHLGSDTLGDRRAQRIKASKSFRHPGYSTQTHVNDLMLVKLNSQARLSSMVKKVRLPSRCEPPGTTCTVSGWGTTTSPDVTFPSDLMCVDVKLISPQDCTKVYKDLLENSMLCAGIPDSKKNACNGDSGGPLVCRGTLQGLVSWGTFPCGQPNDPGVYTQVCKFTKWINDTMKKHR

[5] = target: T3, Suppressor of tumorigenicity 14 protein (Homo sapiens, UniProt Q9Y5Y6); assay: Inhibition of recombinant human matriptase using Boc-QAR-MCA as susbtrate measured every 60 secs for 10 mins by fluorescence based assay
T3 sequence (Q9Y5Y6 whole entry): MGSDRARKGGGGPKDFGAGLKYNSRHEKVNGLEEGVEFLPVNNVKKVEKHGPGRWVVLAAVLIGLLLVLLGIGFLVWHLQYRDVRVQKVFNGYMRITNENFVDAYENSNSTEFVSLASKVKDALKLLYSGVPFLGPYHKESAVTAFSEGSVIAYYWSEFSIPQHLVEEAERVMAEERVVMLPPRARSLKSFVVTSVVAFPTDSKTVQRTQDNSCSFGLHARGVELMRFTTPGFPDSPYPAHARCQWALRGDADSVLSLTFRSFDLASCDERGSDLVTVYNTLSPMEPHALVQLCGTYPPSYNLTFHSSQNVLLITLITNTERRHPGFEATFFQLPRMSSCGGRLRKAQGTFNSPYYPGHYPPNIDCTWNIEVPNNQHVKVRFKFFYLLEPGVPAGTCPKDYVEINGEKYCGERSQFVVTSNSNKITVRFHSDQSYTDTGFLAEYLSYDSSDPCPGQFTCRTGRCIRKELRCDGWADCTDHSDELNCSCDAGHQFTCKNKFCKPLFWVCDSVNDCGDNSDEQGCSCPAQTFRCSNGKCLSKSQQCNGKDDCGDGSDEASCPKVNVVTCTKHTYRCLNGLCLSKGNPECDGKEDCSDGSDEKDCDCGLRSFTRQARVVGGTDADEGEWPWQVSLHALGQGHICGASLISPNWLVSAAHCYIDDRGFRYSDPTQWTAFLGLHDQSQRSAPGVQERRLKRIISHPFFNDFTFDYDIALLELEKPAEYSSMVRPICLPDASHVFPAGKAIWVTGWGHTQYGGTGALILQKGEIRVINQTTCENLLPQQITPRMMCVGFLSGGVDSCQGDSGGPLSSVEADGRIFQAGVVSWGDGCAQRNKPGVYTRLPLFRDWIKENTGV

Homo sapiens = species: Homo sapiens; assay: Inhibition of human cationic trypsin at 10 uM using Boc-VPR-MCA as susbtrate measured every 60 secs for 10 mins by fluorescence based assay relative to control
[6] = target: T4, Suppressor of tumorigenicity 14 protein (Homo sapiens) (UniProt Q9Y5Y6); assay: Inhibition of recombinant human matriptase at 10 uM using Boc-QAR-MCA as susbtrate measured every 60 secs for 10 mins by fluorescence based assay relative to control
T4 sequence (whole entry): T3 sequence (Q9Y5Y6 whole entry)

Kallikrein-7 [7] = target: T2, Kallikrein-7; assay: Inhibition of recombinant human KLK7 expressed in expressed in Pichia pastoris X-33 cells at 10 uM using KHLY-pNA as susbtrate measured every 15 secs for 10 mins by colorimetric analysis relative to control
Target sequence in this assay (P49862 30-253 limits assumed): as the sequence (P49862 30-253 limits assumed) above

[8] = target: T3, Suppressor of tumorigenicity 14 protein; assay: Inhibition of recombinant human matriptase catalytic domain using Boc-QARAMC as substrate preincubated for 1 hr followed by substrate addition
Kallikrein-5 [9] = target: T1, Kallikrein-5; assay: Inhibition of recombinant KLK5 (unknown origin) expressed in Pichia pastoris X-33 cells using pNA peptide as susbtrate measured every 10 secs for 300 secs by spectrometric analysis
Kallikrein-7 [10] = target: T2, Kallikrein-7; assay: Inhibition of recombinant KLK7 (unknown origin) expressed in Pichia pastoris X-33 cells using p-NA peptide as substrate measured every 10 secs for 300 secs by spectrophotometric analysis
Target sequence in this assay (P49862 whole entry): as the sequence (P49862 whole entry) above

Row | Ki (Kallikrein-5 [1]) [nM] | IC50 [2] [nM] | IC50 (Kallikrein-7 [4]) [nM] | IC50 [5] [nM] | Structure (SMILES) | further results
1 | 2.4 | > 10000 | > 5000 | > 10000 | N=C(N)NCCC[C@@H]1NC(=O)[C@H](Cc2cnc[nH]2)NC(=O)[C@@H]2CSSC[C@H](NC(=O)[C@H](CCC(=O)O)NC(=O)[C@@H]3CCCN3C(=O)[C@@H]3CCCN3C(=O)[C@H](Cc3ccc(O)cc3)NC(=O)[C@H](CO)NC1=O)C(=O)N[C@@H](Cc1c[nH]c3ccccc13)C(=O)N1CCC[C@H]1C(=O)N[C@@H](CC(N)=O)C(=O)NCC(=O)N[C@@H](Cc1ccccc1)C(=O)N2 | inhibition (Kallikrein-7 [3]): < 50%
2 | 8.9 | – | – | – | N=C(N)NCCC[C@@H]1NC(=O)[C@H](Cc2cnc[nH]2)NC(=O)[C@@H]2CSSC[C@H](NC(=O)[C@H](CC(=O)O)NC(=O)[C@@H]3CCCN3C(=O)[C@@H]3CCCN3C(=O)[C@H](Cc3ccc(O)cc3)NC(=O)[C@H](CO)NC1=O)C(=O)N[C@@H](Cc1ccccc1)C(=O)N1CCC[C@H]1C(=O)N[C@@H](CC(N)=O)C(=O)NCC(=O)N[C@@H](Cc1ccccc1)C(=O)N2 (cyclo(CFPNGFCHRSYPPD); disulfide 1-7) | –
3 | 3.7 | > 10000 | > 10000 | > 10000 | N=C(N)NCCC[C@@H]1NC(=O)[C@H](Cc2cnc[nH]2)NC(=O)[C@@H]2CSSC[C@H](NC(=O)[C@H](CCC(=O)O)NC(=O)[C@@H]3CCCN3C(=O)[C@@H]3CCCN3C(=O)[C@H](Cc3ccc(O)cc3)NC(=O)[C@H](CO)NC1=O)C(=O)N[C@@H](Cc1ccccc1)C(=O)N1CCC[C@H]1C(=O)N[C@@H](CC(N)=O)C(=O)NCC(=O)N[C@@H](Cc1ccccc1)C(=O)N2 (cyclo(CFPNGFCHRSYPPE); disulfide 1-7) | inhibition (Homo sapiens): < 50%; inhibition [6]: < 50%; inhibition (Kallikrein-7 [7]): < 50%
4 | – | – | – | – | CC[C@H](C)[C@@H]1NC(=O)[C@@H]2CCCN2C(=O)[C@@H]2CCCN2C(=O)[C@H]([C@@H](C)CC)NC(=O)[C@H](CO)NC(=O)[C@H](CCCCN)NC(=O)[C@H]([C@@H](C)O)NC(=O)[C@@H]2CSSC[C@H](NC1=O)C(=O)N[C@@H](Cc1ccccc1)C(=O)N1CCC[C@H]1C(=O)N[C@@H](CC(N)=O)C(=O)NCC(=O)N[C@@H](CCCNC(=N)N)C(=O)N2 (cyclo(CFPNGRCTKSIPPI); disulfide 1-7) | Ki [8]: 200 nM; Ki (Kallikrein-5 [9]): 143 nM; IC50 (Kallikrein-7 [10]): > 10000 nM
5 | 0.73 | – | – | – | N=C(N)NCCC[C@@H]1NC(=O)[C@H](CC(N)=O)NC(=O)[C@@H]2CSSC[C@H](NC(=O)[C@H](CC(=O)O)NC(=O)[C@@H]3CCCN3C(=O)[C@@H]3CCCN3C(=O)[C@H](Cc3ccc(O)cc3)NC(=O)[C@H](CO)NC1=O)C(=O)N[C@@H](Cc1ccccc1)C(=O)N1CCC[C@H]1C(=O)N[C@@H](CC(N)=O)C(=O)NCC(=O)N[C@@H](Cc1ccc(O)cc1)C(=O)N2 (cyclo(CFPNGYCNRSYPPD); disulfide 1-7) | –
6 | 0.34 | > 2000 | > 10000 | > 10000 | N=C(N)NCCC[C@@H]1NC(=O)[C@H](CC(N)=O)NC(=O)[C@@H]2CSSC[C@H](NC(=O)[C@H](CCC(=O)O)NC(=O)[C@@H]3CCCN3C(=O)[C@@H]3CCCN3C(=O)[C@H](Cc3ccc(O)cc3)NC(=O)[C@H](CO)NC1=O)C(=O)N[C@@H](Cc1ccccc1)C(=O)N1CCC[C@H]1C(=O)N[C@@H](CC(N)=O)C(=O)NCC(=O)N[C@@H](Cc1ccc(O)cc1)C(=O)N2 (cyclo(CFPNGYCNRSYPPE); disulfide 1-7) | –
